Measured values reported in ChEMBL document CHEMBL3272271, “Folate antagonists. 13. 2,4-Diamino-6-](alpha,alpha,alpha-trifluoro-m-tolyl)thio]quinazoline and related 2,4-diamino-6-[(phenyl- and naphthyl)thio]quinazolines, a unique class of antimetabolites with extraordinary antimalarial and antibacterial effects” (J Med Chem, 1978).
Calls of active or inactive are those of the source. The rule behind the calls is not given here.

Columns and labels:
[1] = test system: Plasmodium gallinaceum; test: Antimalarial activity against trophozoite-induced Plasmodium gallinaceum infected in white leghorn chicken assessed as disease cure from parasite infection at 320 mg/kg, sc administered 72 hrs after infection; format: functional, organism-based; parameters: dose 320 mg/kg
[2] = test system: Plasmodium gallinaceum; test: Antimalarial activity against trophozoite-induced Plasmodium gallinaceum infected in white leghorn chicken assessed as disease cure from parasite infection at 160 mg/kg, sc administered 72 hrs after infection; format: functional, organism-based; parameters: dose 160 mg/kg
[3] = test system: Enterococcus faecalis; test: Antibacterial activity against Streptococcus faecalis MGH-2 by gradient plate test; format: functional
[4] = test system: Staphylococcus aureus; test: Antibacterial activity against Staphylococcus aureus UC-96 by gradient plate test; format: functional
[5] = test system: Staphylococcus aureus; test: Antibacterial activity against drug-resistant Staphylococcus aureus S18713 by gradient plate test; format: functional
[6] = test system: Pseudomonas aeruginosa; test: Antibacterial activity against Pseudomonas aeruginosa 28 by gradient plate test; format: functional
[7] = test system: Escherichia coli; test: Antibacterial activity against Escherichia coli Vogel by gradient plate test; format: functional
[8] = test system: Shigella sonnei; test: Antibacterial activity against Shigella sonnei C-10 by gradient plate test; format: functional
[9] = test system: Plasmodium gallinaceum; test: Antimalarial activity against sporozoite-induced Plasmodium gallinaceum infected in white leghorn chicken assessed as disease cure from parasite infection at 320 mg/kg, sc administered 72 hrs after infection; format: functional, organism-based; parameters: dose 320 mg/kg
[10] = test system: Gallus gallus; test: Toxicity in sporozoite-induced Plasmodium gallinaceum infected white leghorn chicken assessed as mortality at 320 mg/kg, sc administered 72 hrs after infection measured up to 6 days; format: organism-based; parameters: dose 320 mg/kg, route subcutaneous; conditions: in vivo
[11] = test system: Plasmodium gallinaceum; test: Antimalarial activity against sporozoite-induced Plasmodium gallinaceum infected in white leghorn chicken assessed as disease cure from parasite infection at 160 mg/kg, sc administered 72 hrs after infection; format: functional, organism-based; parameters: dose 160 mg/kg
[12] = test system: Gallus gallus; test: Toxicity in sporozoite-induced Plasmodium gallinaceum infected white leghorn chicken assessed as mortality at 160 mg/kg, sc administered 72 hrs after infection measured up to 6 days; format: organism-based; parameters: dose 160 mg/kg, route subcutaneous; conditions: in vivo
[13] = test system: Plasmodium gallinaceum; test: Antimalarial activity against sporozoite-induced Plasmodium gallinaceum infected in white leghorn chicken assessed as increase in mean survival days of host at 80 mg/kg, sc administered 72 hrs after infection relative to control; format: functional; conditions: route subcutaneous
[14] = test system: Plasmodium gallinaceum; test: Antimalarial activity against sporozoite-induced Plasmodium gallinaceum infected in white leghorn chicken assessed as disease cure from parasite infection at 80 mg/kg, sc administered 72 hrs after infection; format: functional, organism-based; parameters: dose 80 mg/kg
[15] = test system: Plasmodium gallinaceum; test: Antimalarial activity against sporozoite-induced Plasmodium gallinaceum infected in white leghorn chicken assessed as increase in mean survival days of host at 40 mg/kg, sc administered 72 hrs after infection relative to control; format: functional; conditions: route subcutaneous
[16] = test system: Plasmodium gallinaceum; test: Antimalarial activity against sporozoite-induced Plasmodium gallinaceum infected in white leghorn chicken assessed as disease cure from parasite infection at 40 mg/kg, sc administered 72 hrs after infection; format: functional, organism-based; parameters: dose 40 mg/kg
[17] = test system: Plasmodium gallinaceum; test: Antimalarial activity against sporozoite-induced Plasmodium gallinaceum infected in white leghorn chicken assessed as increase in mean survival days of host at 20 mg/kg, sc administered 72 hrs after infection relative to control; format: functional; conditions: route subcutaneous
[18] = test system: Plasmodium gallinaceum; test: Antimalarial activity against sporozoite-induced Plasmodium gallinaceum infected in white leghorn chicken assessed as disease cure from parasite infection at 20 mg/kg, sc administered 72 hrs after infection; format: functional, organism-based; parameters: dose 20 mg/kg
[19] = test system: Plasmodium gallinaceum; test: Antimalarial activity against sporozoite-induced Plasmodium gallinaceum infected in white leghorn chicken assessed as increase in mean survival days of host at 10 mg/kg, sc administered 72 hrs after infection relative to control; format: functional; conditions: route subcutaneous
[20] = test system: Plasmodium gallinaceum; test: Antimalarial activity against sporozoite-induced Plasmodium gallinaceum infected in white leghorn chicken assessed as disease cure from parasite infection at 10 mg/kg, sc administered 72 hrs after infection; format: functional, organism-based; parameters: dose 10 mg/kg
[21] = test system: Plasmodium berghei; test: Antimalarial activity against Plasmodium berghei infected in mouse assessed as increase in mean survival days of host at 20 mg/kg, sc administered 72 hrs after infection relative to control; format: functional; conditions: route subcutaneous
[22] = test system: Plasmodium berghei; test: Antimalarial activity against Plasmodium berghei infected in mouse assessed as increase in mean survival days of host at 10 mg/kg, sc administered 72 hrs after infection relative to control; format: functional; conditions: route subcutaneous
[23] = test system: Plasmodium berghei; test: Antimalarial activity against Plasmodium berghei infected in mouse assessed as increase in mean survival days of host at 5 mg/kg, sc administered 72 hrs after infection relative to control; format: functional; conditions: route subcutaneous
[24] = test system: Plasmodium berghei; test: Antimalarial activity against Plasmodium berghei infected in mouse assessed as increase in mean survival days of host at 2.5 mg/kg, sc administered 72 hrs after infection relative to control; format: functional; conditions: route subcutaneous
[25] = test system: Plasmodium berghei; test: Antimalarial activity against Plasmodium berghei infected in mouse assessed as increase in mean survival days of host at 1.25 mg/kg, sc administered 72 hrs after infection relative to control; format: functional; conditions: route subcutaneous
[26] = test system: Plasmodium berghei; test: Antimalarial activity against Plasmodium berghei infected in mouse assessed as disease cure from parasite infection at 640 mg/kg, sc administered 72 hrs after infection; format: functional, organism-based; parameters: dose 640 mg/kg
[27] = test system: Plasmodium berghei; test: Antimalarial activity against Plasmodium berghei infected in mouse assessed as disease cure from parasite infection at 320 mg/kg, sc administered 72 hrs after infection; format: functional, organism-based; parameters: dose 320 mg/kg
[28] = test system: Plasmodium berghei; test: Antimalarial activity against Plasmodium berghei infected in mouse assessed as disease cure from parasite infection at 160 mg/kg, sc administered 72 hrs after infection; format: functional, organism-based; parameters: dose 160 mg/kg
[29] = test system: Plasmodium berghei; test: Antimalarial activity against Plasmodium berghei infected in mouse assessed as disease cure from parasite infection at 80 mg/kg, sc administered 72 hrs after infection; format: functional, organism-based; parameters: dose 80 mg/kg
[30] = test system: Plasmodium berghei; test: Antimalarial activity against Plasmodium berghei infected in mouse assessed as disease cure from parasite infection at 40 mg/kg, sc administered 72 hrs after infection; format: functional, organism-based; parameters: dose 40 mg/kg
[31] = test system: Plasmodium berghei; test: Antimalarial activity against Plasmodium berghei infected in mouse assessed as disease cure from parasite infection at 20 mg/kg, sc administered 72 hrs after infection; format: functional, organism-based; parameters: dose 20 mg/kg
[32] = test system: Plasmodium berghei; test: Antimalarial activity against trophozoite-induced Plasmodium berghei infected in mouse assessed as daily dose required to suppression of 90% parasite infection administered with diet for 6 days; format: functional
[33] = test system: Plasmodium berghei; test: Ratio of quinine hydrochloride SD90 to compound SD90 for trophozoite-induced Plasmodium berghei infected in mouse assessed as daily dose required to suppression of 90% parasite infection administered with diet for 6 days; format: functional
[34] = test system: Plasmodium gallinaceum; test: Antimalarial activity against trophozoite-induced Plasmodium gallinaceum infected in white leghorn chicken assessed as increase in mean survival days of host at 320 mg/kg, sc administered 72 hrs after infection relative to control; format: functional; conditions: route subcutaneous
[35] = test system: Plasmodium gallinaceum; test: Antimalarial activity against trophozoite-induced Plasmodium gallinaceum infected in white leghorn chicken assessed as increase in mean survival days of host at 160 mg/kg, sc administered 72 hrs after infection relative to control; format: functional; conditions: route subcutaneous
[36] = test system: Plasmodium gallinaceum; test: Antimalarial activity against trophozoite-induced Plasmodium gallinaceum infected in white leghorn chicken assessed as increase in mean survival days of host at 80 mg/kg, sc administered 72 hrs after infection relative to control; format: functional; conditions: route subcutaneous
[37] = test system: Plasmodium gallinaceum; test: Antimalarial activity against trophozoite-induced Plasmodium gallinaceum infected in white leghorn chicken assessed as increase in mean survival days of host at 40 mg/kg, sc administered 72 hrs after infection relative to control; format: functional; conditions: route subcutaneous
[38] = test system: Plasmodium gallinaceum; test: Antimalarial activity against trophozoite-induced Plasmodium gallinaceum infected in white leghorn chicken assessed as increase in mean survival days of host at 20 mg/kg, sc administered 72 hrs after infection relative to control; format: functional; conditions: route subcutaneous
[39] = test system: Plasmodium gallinaceum; test: Antimalarial activity against trophozoite-induced Plasmodium gallinaceum infected in white leghorn chicken assessed as increase in mean survival days of host at 10 mg/kg, sc administered 72 hrs after infection relative to control; format: functional; conditions: route subcutaneous
[40] = test system: Plasmodium gallinaceum; test: Antimalarial activity against trophozoite-induced Plasmodium gallinaceum infected in white leghorn chicken assessed as increase in mean survival days of host at 5 mg/kg, sc administered 72 hrs after infection relative to control; format: functional; conditions: route subcutaneous
[41] = test system: Plasmodium gallinaceum; test: Antimalarial activity against trophozoite-induced Plasmodium gallinaceum infected in white leghorn chicken assessed as increase in mean survival days of host at 2.5 mg/kg, sc administered 72 hrs after infection relative to control; format: functional; conditions: route subcutaneous
[42] = test system: Plasmodium gallinaceum; test: Antimalarial activity against trophozoite-induced Plasmodium gallinaceum infected in white leghorn chicken assessed as increase in mean survival days of host at 1.25 mg/kg, sc administered 72 hrs after infection relative to control; format: functional; conditions: route subcutaneous
[43] = test system: Plasmodium gallinaceum; test: Antimalarial activity against trophozoite-induced Plasmodium gallinaceum infected in white leghorn chicken assessed as increase in mean survival days of host at 0.63 mg/kg, sc administered 72 hrs after infection relative to control; format: functional; conditions: route subcutaneous
[44] = test system: Gallus gallus; test: Toxicity in trophozoite-induced Plasmodium gallinaceum infected white leghorn chicken assessed as mortality at 320 mg/kg, sc administered 72 hrs after infection measured after 48 hrs; format: organism-based; parameters: dose 320 mg/kg, route subcutaneous; conditions: in vivo

For `Nc1nc(N)c2cc(Sc3ccc(F)cc3)ccc2n1`, the Activity [1] was “Active”, the Activity [2] was “Active” and the MIC [3] was < 0.25 µg/mL. For the same molecule, the MIC [4] was < 0.25 µg/mL, the MIC [5] was < 0.25 µg/mL and the MIC [6] was > 25 µg/mL. The MIC [7] was < 0.25 µg/mL, the MIC [8] was < 0.25 µg/mL and the Activity [9] was “Active”. For the same molecule, the Activity [10] was “Toxic”, the Activity [11] was “Active” and the Activity [12] was “Toxic”. The MST [13] was 0.5 days, the Activity [14] was “Active” and the MST [15] was 0.5 days. The Activity [16] was “Active”, the MST [17] was 0.5 days and the Activity [18] was “Active”. The MST [19] was 6.5 days, the Activity [20] was “Active” and the MST [21] was 13.5 days. The MST [22] was 11.1 days, the MST [23] was 7.1 days and the MST [24] was 6.1 days. The MST [25] was 5.3 days, the Activity [26] was “Active” and the Activity [27] was “Active”. The Activity [28] was “Active”, the Activity [29] was “Active” and the Activity [30] was “Active”. The Activity [31] was “Active”, the SD90 [32] was 0.36 mg/kg/day and the Ratio [33] was 210. It also gave an MST [34] of 19.3 days, an MST [35] of 15.5 days and an MST [36] of 13 days. For the same molecule, the MST [37] was 9.2 days, the MST [38] was 7.8 days and the MST [39] was 7.2 days. It also gave an MST [40] of 5.8 days, an MST [41] of 3.2 days and an MST [42] of 0 days. It also gave an MST [43] of 0 days.
For `CN(Cc1ccc(Cl)c(Cl)c1)c1ccc2nc(N)nc(N)c2c1`, the Activity [44] was “Toxic”, the MST [21] was 14.9 days and the MST [22] was 7.5 days. For the same molecule, the MST [23] was 2.9 days, the MST [24] was 1.5 days and the MST [25] was 0.3 days. It also gave an MST [35] of 21 days, an MST [36] of 20.6 days and an MST [37] of 15.6 days. The MST [38] was 10.6 days, the MST [39] was 7.4 days and the MST [40] was 6.8 days. The MST [41] was 6 days and the MST [42] was 1.4 days.
